Measurements: patent publication US20240353393A1, “LABEL FREE DRUG AND TISSUE BIOPSY SCREENING/DIAGNOSTIC IN CANCER” (University of Virginia Patent Foundation, priority 2023, published 2024)

Legend:
Assay type in all cases: cell-based
AA prostate cancer cells = assay: FLIRR vs intensity-based redox ratio, CoCl2 pretreatment and glucose stimulation
PCa cells [1] = assay: Trp-NAD(P)H FRET interaction by FLIM-FRET after doxorubicin treatment; conditions: as early as 15 mins of treatment, real time, before induction of apoptosis
Description: Auto-fluorescent biomarker, tryptophan (Trp), has also been linked to cancer investigations. Trp, an essential amino acid, is a precursor of niacin, which in turn is a precursor of NAD (P) H. Increased Trp catabolismand increased indoleamine 2,3-dioxygenase (IDO) activity in the kynurenine pathway are linked to cancer development and progression. Therefore, probing Trp is clinically relevant. In general, Trp fluorescence intensity and lifetime mainly provide information on the protein composition, protein structure of which they are a part of and changes in overall cellular microenvironment. Trp is therefore used as a marker for protein abundance. […] In FLIM-FRET measurements, FRET events are identified if there is reduction in the donor lifetime, because of quenching of its fluorescence in the presence of the acceptor. […] The efficiency of energy transfer or E % is calculated from the following equation E=1-τm/τ0, where τm is the mean lifetime of Trp in cells and τ0=3.1 ns of unquenched Trp lifetime measured from Trp in solution. […]
FLIM instrumentation can include a 3-channel FLIM imaging system of a Zeiss LSM 780 confocal/multiphoton (MP) laser scanning system coupled to the Zeiss inverted epi-fluorescence microscope, which is controlled with the ZEN software (Carl Zeiss, Inc). […]

PCa cells [2] = assay: FLIRR (NAD(P)H-a2%/FAD-a1%) by FLIM after doxorubicin treatment; conditions: as early as 15 mins of treatment, real time, before induction of apoptosis
Description: The enzyme-bound fractions of NAD (P) H (a2%) and FAD (a1%) and their lifetimes (tm) are used to quantify these metabolic changes, in particular with our novel NAD (P) H-a2%/FAD-a1% FLIM-based redox ratio. The commonly used intensity-based redox ratio [NAD (P) H/FAD], based predominantly on signals driven by mitochondrial OXPHOS is defined as a reduction of this ratio, due to the conversion of fluorescent NAD (P) H to non-fluorescent NAD+ and conversion of non-fluorescent FADH2 to fluorescent FAD. […]
FLIM instrumentation can include a 3-channel FLIM imaging system of a Zeiss LSM 780 confocal/multiphoton (MP) laser scanning system coupled to the Zeiss inverted epi-fluorescence microscope, which is controlled with the ZEN software (Carl Zeiss, Inc). […] The fluorescence decay per pixel was measured using 3-channel SPC-150 TCSPC board (Becker & Hickl, GmbH) where the SPCM software was used to acquire the FLIM data (v. 8.91). […]
The ratio of the bound NAD (P) H to bound FAD, the Fluorescence Lifetime Imaging Redox Ratio (FLIRR), is an optical biomarker to determine a cell's primary metabolic pathway with higher FLIRR values often consistent with a shift towards oxidative phosphorylation and lower values often associated with a shift towards glycolysis.

[Cl-].[Cl-].[Co+2] [CoCl2]
NADH-a2%/FAD-a1% ratio (AA prostate cancer cells): decrease

COc1cccc2c1C(=O)c1c(O)c3c(c(O)c1C2=O)C[C@@](O)(C(=O)CO)C[C@@H]3O[C@H]1C[C@H](N)[C@H](O)[C@H](C)O1 [doxorubicin]
Trp-NAD(P)H FRET interactions (PCa cells [1]): increase | FLIRR of metabolic co-enzymes NAD(P)H & FAD (PCa cells [2]): increase
